Several values for one entry are separate records, joined by “and”; a condition that tells them apart may be missing. Equal values may be shown once. Read-outs that look alike come from different tables or passages of the source.

One series concerns the target T1, collagen (Gallus gallus, UniProt P02457+P02467).
T1 construct: collagen obtained by grinding and deliming the bone of a spring chicken; from tissue; host or cells: bone of a spring chicken, ground and delimed (demineralised)
In kind it is biochemical, spring chicken.

A short description of series [1]: LD50 safety data, rat subcutaneous treatment. The settings on record: in vivo, sc. The text has this: The silicon compound used in the present invention involves no problem with respect to safety. Shown below are data as to the safety of the silicon compounds.
The mark [2] stands for this setting: silicon compound 0.01 %, collagen 100 mg, glucose 0.2 M, pH 7.4, 37 C, 4 weeks.
The mark [3] stands for this setting: silicon compound 0.01 %, collagen 100 mg, glucose 0.2 M, pH 7.4, 37 C, 4 weeks, solubilized by cutting with CNBr.
Where [4] appears, read: silicon compound 0.05 %, collagen 100 mg, glucose 0.2 M, pH 7.4, 37 C, 4 weeks.
[5] abbreviates: silicon compound 0.05 %, collagen 100 mg, glucose 0.2 M, pH 7.4, 37 C, 4 weeks, solubilized by cutting with CNBr.
The mark [6] stands for this setting: silicon compound 0.1 %, collagen 100 mg, glucose 0.2 M, pH 7.4, 37 C, 4 weeks.

T1 sequence (P02467 78-1363): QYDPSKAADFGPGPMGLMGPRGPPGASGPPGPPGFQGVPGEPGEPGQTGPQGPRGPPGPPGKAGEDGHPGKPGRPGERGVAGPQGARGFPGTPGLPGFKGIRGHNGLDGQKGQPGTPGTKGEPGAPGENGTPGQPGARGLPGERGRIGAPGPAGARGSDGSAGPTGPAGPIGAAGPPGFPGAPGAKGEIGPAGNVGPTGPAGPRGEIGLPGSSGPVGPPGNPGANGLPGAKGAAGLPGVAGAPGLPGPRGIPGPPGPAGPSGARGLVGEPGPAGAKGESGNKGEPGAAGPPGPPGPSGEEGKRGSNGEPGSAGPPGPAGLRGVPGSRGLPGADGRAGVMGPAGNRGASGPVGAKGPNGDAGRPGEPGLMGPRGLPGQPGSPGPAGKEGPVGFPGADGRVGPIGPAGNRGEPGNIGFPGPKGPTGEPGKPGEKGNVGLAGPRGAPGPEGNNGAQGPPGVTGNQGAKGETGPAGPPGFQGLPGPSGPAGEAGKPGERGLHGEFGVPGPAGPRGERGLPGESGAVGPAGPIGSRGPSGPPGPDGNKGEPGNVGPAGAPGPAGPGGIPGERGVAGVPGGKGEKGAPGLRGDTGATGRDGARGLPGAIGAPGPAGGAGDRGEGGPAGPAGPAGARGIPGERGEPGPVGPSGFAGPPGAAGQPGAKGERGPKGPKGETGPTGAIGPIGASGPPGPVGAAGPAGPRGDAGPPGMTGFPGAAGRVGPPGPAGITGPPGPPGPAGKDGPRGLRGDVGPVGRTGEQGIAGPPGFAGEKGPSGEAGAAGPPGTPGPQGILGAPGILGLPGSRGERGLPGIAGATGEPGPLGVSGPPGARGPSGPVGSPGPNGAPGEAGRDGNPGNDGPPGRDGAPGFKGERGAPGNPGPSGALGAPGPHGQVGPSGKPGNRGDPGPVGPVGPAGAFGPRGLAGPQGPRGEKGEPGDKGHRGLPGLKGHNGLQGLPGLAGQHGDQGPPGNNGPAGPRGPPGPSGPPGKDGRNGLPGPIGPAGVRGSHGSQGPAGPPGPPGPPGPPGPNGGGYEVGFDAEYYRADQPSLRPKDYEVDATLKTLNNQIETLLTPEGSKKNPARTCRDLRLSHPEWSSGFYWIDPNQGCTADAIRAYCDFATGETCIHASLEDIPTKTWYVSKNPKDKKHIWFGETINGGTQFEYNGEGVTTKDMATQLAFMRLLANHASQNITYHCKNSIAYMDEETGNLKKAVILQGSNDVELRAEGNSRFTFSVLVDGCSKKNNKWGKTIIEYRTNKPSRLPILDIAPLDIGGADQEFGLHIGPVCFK
T1 sequence (P02457 152-1207): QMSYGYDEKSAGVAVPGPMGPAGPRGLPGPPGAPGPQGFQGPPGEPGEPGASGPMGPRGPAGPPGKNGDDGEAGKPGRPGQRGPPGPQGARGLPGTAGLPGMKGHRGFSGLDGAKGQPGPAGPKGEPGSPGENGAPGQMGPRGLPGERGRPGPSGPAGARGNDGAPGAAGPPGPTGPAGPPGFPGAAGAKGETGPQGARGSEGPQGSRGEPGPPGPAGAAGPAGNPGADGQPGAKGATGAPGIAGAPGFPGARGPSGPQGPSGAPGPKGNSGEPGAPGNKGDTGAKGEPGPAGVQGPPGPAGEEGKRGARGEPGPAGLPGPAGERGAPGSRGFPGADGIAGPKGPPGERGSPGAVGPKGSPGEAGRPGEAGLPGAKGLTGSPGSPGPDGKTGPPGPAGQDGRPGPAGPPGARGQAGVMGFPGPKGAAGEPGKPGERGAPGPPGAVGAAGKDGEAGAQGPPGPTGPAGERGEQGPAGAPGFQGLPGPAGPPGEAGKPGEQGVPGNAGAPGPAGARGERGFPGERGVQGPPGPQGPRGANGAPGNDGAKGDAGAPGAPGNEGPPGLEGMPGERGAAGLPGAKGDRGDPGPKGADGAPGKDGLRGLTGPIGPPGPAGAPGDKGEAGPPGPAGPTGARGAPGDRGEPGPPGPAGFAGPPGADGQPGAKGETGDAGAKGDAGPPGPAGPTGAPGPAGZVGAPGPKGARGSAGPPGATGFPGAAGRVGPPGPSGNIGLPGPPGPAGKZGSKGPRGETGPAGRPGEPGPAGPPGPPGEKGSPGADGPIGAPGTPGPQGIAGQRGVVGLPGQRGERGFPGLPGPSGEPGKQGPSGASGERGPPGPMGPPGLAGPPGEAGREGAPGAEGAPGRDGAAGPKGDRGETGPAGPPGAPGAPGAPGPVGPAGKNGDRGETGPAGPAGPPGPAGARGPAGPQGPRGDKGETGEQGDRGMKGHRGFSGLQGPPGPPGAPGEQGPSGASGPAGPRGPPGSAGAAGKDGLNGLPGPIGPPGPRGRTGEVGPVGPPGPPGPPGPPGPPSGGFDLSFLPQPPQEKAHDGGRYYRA

Turning to `O[Si](O)(O)C1CCCCC1` [Cyclohexyl silanetriol, cyclohexyl silanetriol], the figures for the “Portion A/ portion B” value at collagen (setting [2]) and at collagen (setting [4]) were 0.42 and 0.45, respectively. Besides, the “Soluble collagen (%)” value worked out at 68% at collagen (setting [3]) and 73% at collagen (setting [5]).
As to `C[Si](O)(O)O[Si](C)(O)O` [Dimer of methyl silnetriol], the “Portion A/ portion B” value on collagen (setting [2]) is listed as 0.35; at collagen (setting [4]) it was 0.40. Also, the “Soluble collagen (%)” value on collagen (setting [3]) is listed as 80%; at collagen (setting [5]), 75%.
Regarding `C[Si](C)(O)O` [Dimethyl silanediol, dimethyl silanediol], the “Portion A/ portion B” value is recorded as 0.43 on collagen (setting [2]) and 0.35 at collagen (setting [6]).
As for `CCCCCCCCCCCC[Si](O)(O)O` [Dodecyl silanetriol, dodecyl silanetriol], the “Portion A/ portion B” value at collagen (setting [2]) amounted to 0.45; on collagen (setting [4]), 0.44. For the same compound, the results for the “Soluble collagen (%)” value at collagen (setting [3]) and at collagen (setting [5]) were 68% and 72%, respectively.
By LD50 is commonly meant the dose expected to kill half of the subjects tested. As for `C[Si](O)(O)O` [Methyl silanetriol, methyl silanetriol], the LD50 in series [1] was at least 1000 mg/kg. The “crosslinking and polymerization of collagen” value on collagen (addition of 0.01 to 0.1%) was “inhibits the crosslinking and polymerization of collagen”. For the same compound, on collagen (pH 7.4), the “Soluble collagen (%)” value was 50% and 81% and 86% and 76% and 54%. For the same compound, the “Portion A/ portion B” value at collagen (silicon compound 0.003 %, collagen 100 mg, glucose 0.2 M, pH 7.4, 37 C, 4 weeks) was determined as 0.55; on collagen (setting [2]), 0.40; at collagen (silicon compound 0.03 %, collagen 100 mg, glucose 0.2 M, pH 7.4, 37 C, 4 weeks) it was 0.35; on collagen (setting [6]), 0.40; at collagen (silicon compound 0.3 %, collagen 100 mg, glucose 0.2 M, pH 7.4, 37 C, 4 weeks) it was 0.54.
For `O[Si](O)(O)c1ccccc1` [Phenyl silanetriol], the “Portion A/ portion B” value was 0.40 at collagen (setting [2]) and 0.41 on collagen (setting [4]). In addition, the “Soluble collagen (%)” value at collagen (setting [3]) was determined as 70%; at collagen (setting [5]), 72%.
As for `CC=C[Si](O)(O)O` [Propenyl silanetriol, propenyl silanetriol], the “Portion A/ portion B” value on collagen (setting [2]) turned out to be 0.45; on collagen (setting [6]) it was 0.39. Besides, the “Soluble collagen (%)” value is reported as 71% on collagen (setting [3]) and 72% at collagen (silicon compound 0.1 %, collagen 100 mg, glucose 0.2 M, pH 7.4, 37 C, 4 weeks, solubilized by cutting with CNBr).

Values taken from patent EP0242855A2, “Crosslinking reaction inhibitor for collagen” (priority 1986, dated 1987).
